Source: publication PMC6264390, “Design, Synthesis and Structure-activity Studies of Rhodanine Derivatives as HIV-1 Integrase Inhibitors” (Molecules, 2010)

Assays:
[1] = test system: Panc-1 pancreatic cancer cell line; experiment: MTT cytotoxicity assay, Panc-1; format: cell-based; conditions: Homo sapiens, 72 h
Excerpt: (§1) Human melanoma cell line MDA-MB 435, pancreatic cancer cell line Panc-1, and colon cancer cell line HT 29 were purchased from the American Type Cell Culture (Manassas, VA, USA). HCT 116 p53^+/+ and HCT 116 p53^−/^− were kindly provided by Dr. Bert Vogelstein, Johns Hopkins Medical Institutions (Baltimore, MD, USA). HCT 116 p53^+/+, HCT116 p53^−/^−, and HT 29 cells were maintained as monolayer cultures in RPMI 1640 supplemented with 10% fetal bovine serum (FBS; Gemini-Bioproducts, Woodland, CA, USA) and 2 mmol/L L-glutamine at 37 °C in a humidified atmosphere of 5% CO2. Similarly, MDA-MB 435 and Panc-1 cells were maintained in Dulbecco’s modified Eagle’s medium (DMEM) supplemented with 10% fetal bovine serum as described above. […]
(§2) Cytotoxicity was assessed by 3-(4,5-dimethylthiazol-2-yl)-2,5-diphenyltetrazolium bromide (MTT) assay as previously described. […]
(§3) After 72 h exposure to the test compounds, MTT solution (5 mg/mL; 20 μL) was added to each well and cells were incubated for 4 h at 37 °C. […] The absorbance intensity was measured at 570 nm against appropriate blank controls using a microplate reader (Molecular Devices, Sunnyvale, CA, USA). […]

[2] = test system: HCT 116 p53^+/+; experiment: MTT cytotoxicity assay, HCT 116 p53+/+; format: cell-based; conditions: Homo sapiens, 72 h
Excerpt: as §1, §2, §3

[3] = test system: MDA-MB 435 melanoma cell line; experiment: MTT cytotoxicity assay, MDA-MB 435; format: cell-based; conditions: Homo sapiens, 72 h, read-out: GI50, MDA-MD435
Excerpt: as §1, §2, §3

[4] = test system: HCT 116 p53^−/^−; experiment: MTT cytotoxicity assay, HCT 116 p53−/−; format: cell-based; conditions: Homo sapiens, 72 h
Excerpt: as §1, §2, §3

[5] = test system: HT 29 colon cancer cell line; experiment: MTT cytotoxicity assay, HT 29; format: cell-based; conditions: Homo sapiens, 72 h
Excerpt: as §1, §2, §3

Compound	GI50 [1] [µM]	GI50 [2] [µM]	GI50 [3] [µM]	GI50 [4] [µM]	GI50 [5] [µM]	melting point [°C]
O=C(Nc1ccc(Cl)cc1)C(=S)NN1C(=O)C(=Cc2ccc([N+](=O)[O-])o2)SC1=S [Compound 13, N-(4-chlorophenyl)-2-{5-[(5-nitro-2-furyl)methylene]-4-oxo-2-thioxo-1,3-thiazolidin-3-yl}amino-2-thioxoacetamide]	8.6 ± 1.6	> 10	13.5 ± 5.2	6.5 ± 1.2	> 10	159 to 160
COc1ccc(NC(=O)C(=S)NN2C(=O)C(=Cc3ccc([N+](=O)[O-])o3)SC2=S)cc1 [Compound 17, N-(4-methoxyphenyl)-2-{5-[(5-nitro-2-furyl)methylene]-4-oxo-2-thioxo-1,3-thiazolidin-3-yl}amino-2-thioxoacetamide]	8.2 ± 1.2	5.1 ± 0.8	9 ± 1.1	6.1 ± 2.2	9.6	187 to 188
